Measured values from publication PMC9106635, “Stimulation of the atypical chemokine receptor 3 (ACKR3) by a small-molecule agonist attenuates fibrosis in a preclinical liver but not lung injury model” (Cellular and Molecular Life Sciences: CMLS, 2022).

Biological target: hCXCR4 (Homo sapiens, UniProt P61073)
Experiment: Ca2+ mobilization assay, U87.CD4.CXCR4 cells, CXCL12-induced
Type: cell-based
Set-up: expressed in transfected cells; host or cells: U87.CD4.CXCR4
Settings: antagonism of CXCL12 response
Method: The calcium (Ca^2+) mobilization assay was described in detail before. Briefly, U87.CD4.CXCR4 or U87.CD4.CCR5 cells (2 × 10^4 cells per well in DMEM/10% FBS/0.01 M HEPES) were seeded in gelatin-coated (Sigma-Aldrich; 0.1% gelatin in DPBS) black-walled 96-well plates and incubated overnight at 37 °C and 5% CO2. The next day, cells were loaded with the fluorescent Ca^2+ indicator Fluo-2 acetoxymethyl (AM) ester (4 μM final concentration; Abcam) and incubated at RT in the dark for 45 min. Then, cells were washed with assay buffer (see above) and subsequently incubated with different concentrations of compound for ~ 10 min prior to addition of 6.25 nM CXCL12 (in case of CXCR4) or 6.4 nM CCL5 (in case of CCR5). Fluctuations in intracellular Ca^2+ levels were measured in real time by the FLIPR Tetra® device (Molecular Devices) in all 96 wells simultaneously. The response (Relative Light Units, RLUs) over baseline was calculated (ScreenWorks 4.0® software, Molecular Devices) by dividing the RLUs by a base line value measured just before addition of CXCL12 or CCL5, respectively. Inhibition of the Ca^2+ response was determined taking into account negative (i.e., untreated cells without stimulation) and positive (i.e., untreated cells stimulated with either CXCL12 or CCL5) control samples.

hCXCR4, sequence (P61073 whole entry): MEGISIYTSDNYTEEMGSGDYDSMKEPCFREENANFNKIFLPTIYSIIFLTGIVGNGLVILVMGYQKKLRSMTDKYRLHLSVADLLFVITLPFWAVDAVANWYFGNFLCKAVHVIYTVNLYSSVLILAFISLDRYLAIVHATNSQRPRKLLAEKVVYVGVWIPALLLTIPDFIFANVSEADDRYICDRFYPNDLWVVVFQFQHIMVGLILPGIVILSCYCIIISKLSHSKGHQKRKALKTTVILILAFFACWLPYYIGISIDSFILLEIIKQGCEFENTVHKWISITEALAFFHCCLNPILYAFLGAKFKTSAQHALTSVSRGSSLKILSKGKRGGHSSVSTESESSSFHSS

IC50: > 40 µM
SMILES: CCc1ccn2ccnc2c1N1CCCN(C(CC(N)=O)C2CCN(C(=O)C3CC4CCC3O4)CC2)CC1 (stereo not shown) [compound 18a]
